Laboratory results: BindingDB's records for doi:10.1016/j.bmcl.2008.08.079 (Abbott Laboratories, 2008)

Legend:
[1] = molecular target: Serine/threonine-protein kinase pim-1 (Homo sapiens, UniProt P11309); assay: Pim Kinase Assay; conditions: pH 7.5; 22 °C
Experimental: (§1) Assays were conducted in 384-well v-bottom polypropylene plates. Test compound was mixed with Pim and biotinylated peptide substrate, followed by immediate initiation with [gamma-33 P]ATP. Reactions were quenched and transferred to 384-well streptavidin-coated plates. After incubation, radioactivity was counted on a TopCount Scintillation Plate Reader (Packard).

[2] = molecular target: Serine/threonine-protein kinase pim-2 (Homo sapiens, UniProt Q9P1W9); assay: Pim Kinase Assay; conditions: pH 7.5; 22 °C
Sequence of Serine/threonine-protein kinase pim-2 (Q9P1W9 whole entry): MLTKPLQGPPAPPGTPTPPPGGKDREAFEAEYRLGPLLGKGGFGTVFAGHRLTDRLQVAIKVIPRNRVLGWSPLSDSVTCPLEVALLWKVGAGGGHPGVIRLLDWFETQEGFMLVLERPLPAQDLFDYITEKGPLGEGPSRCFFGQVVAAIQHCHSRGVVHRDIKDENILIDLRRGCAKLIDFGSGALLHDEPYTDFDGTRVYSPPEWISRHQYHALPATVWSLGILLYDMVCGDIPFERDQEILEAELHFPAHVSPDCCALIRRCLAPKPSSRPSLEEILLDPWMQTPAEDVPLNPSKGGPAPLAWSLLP
Experimental: as §1

Sequence of Serine/threonine-protein kinase pim-1 (P11309 whole entry): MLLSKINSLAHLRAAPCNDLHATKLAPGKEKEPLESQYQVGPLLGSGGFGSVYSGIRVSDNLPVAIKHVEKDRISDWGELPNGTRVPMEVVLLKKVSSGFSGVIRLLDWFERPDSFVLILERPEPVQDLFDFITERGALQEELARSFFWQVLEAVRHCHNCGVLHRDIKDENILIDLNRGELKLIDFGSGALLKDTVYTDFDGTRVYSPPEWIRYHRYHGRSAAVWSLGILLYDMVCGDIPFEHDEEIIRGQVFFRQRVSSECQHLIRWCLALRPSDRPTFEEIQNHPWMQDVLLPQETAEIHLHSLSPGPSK

Compound | Ki [1] [nM] | Ki [2] [nM]
CCn1c2cc(Cl)c(F)cc2c(=O)c2c(=O)on(C)c21 [7-chloro-9-ethyl-6-fluoro-1-methyl-1H,3H,4H,9H-quinolino[2,3-c][1,2]oxazole-3,4-dione] | 50.1 | > 1420
CCn1c2noc(=O)c-2c(O)c2cc(O)c(Cl)cc21 [7-chloro-9-ethyl-6-hydroxy-1H,3H,4H,9H-quinolino[2,3-c][1,2]oxazole-3,4-dione] |  | 43.5
CCn1c2noc(=O)c-2c(O)c2cc(OC)c(Cl)cc21 [7-chloro-9-ethyl-6-methoxy-1H,3H,4H,9H-quinolino[2,3-c][1,2]oxazole-3,4-dione] | 2700 | > 1420
O=c1onc2n(Cc3ccccc3)c3cc(Cl)c(F)cc3c(O)c1-2 [9-benzyl-7-chloro-6-fluoro-1H,3H,4H,9H-quinolino[2,3-c][1,2]oxazole-3,4-dione] | 36.5 | 558
CC(C)n1c2noc(=O)c-2c(O)c2cc(F)c(Cl)cc21 [7-chloro-6-fluoro-9-(propan-2-yl)-1H,3H,4H,9H-quinolino[2,3-c][1,2]oxazole-3,4-dione] | 12.3 | 62.8
CCCCn1c2noc(=O)c-2c(O)c2cc(F)c(Cl)cc21 [9-butyl-7-chloro-6-fluoro-1H,3H,4H,9H-quinolino[2,3-c][1,2]oxazole-3,4-dione] | 15 | 165
